In ChEMBL document CHEMBL4619714, “Amino acid prodrugs of NVR3-778: Design, synthesis and anti-HBV activity” (Bioorg Med Chem Lett, 2020):
Values after ≈ are worked out from the molar mass of the structure shown. One block for each molecule: values may come before it.

How the values were obtained:
Hepatitis B virus [1] = assay: Antiviral activity against Hepatitis B virus infected in human HepG2.2.15 cells by solid phase radioimmunoassay; assay type: functional, organism-based; conditions: HepG2 2.2.15
[2] = Cytotoxicity against human HepG2.2.15 cells; assay type: cell-based, HepG2 2.2.15
[3] = Selectivity index, ratio of CC50 for human HepG2.2.15 cells to IC50 for Hepatitis B virus; assay type: toxicity; conditions: read-out: Ratio CC50/IC50
[4] = Solubility of compound at pH 2 by HPLC-UV analysis; assay type: physicochemical; conditions: buffer
[5] = Half life in ICR mouse at 50 mg/kg, po; assay type: ADME, organism-based; conditions: in vivo
[6] = Tmax in ICR mouse at 50 mg/kg, po; assay type: ADME, organism-based; conditions: in vivo
[7] = Cmax in ICR mouse at 50 mg/kg, po; assay type: ADME, organism-based; design: dose 50 mg/kg, route oral; conditions: in vivo
[8] = AUC (0 to t) in ICR mouse at 50 mg/kg, po; assay type: ADME, organism-based; conditions: in vivo
[9] = MRT in ICR mouse at 50 mg/kg, po; assay type: ADME, organism-based; conditions: in vivo
Hepatitis B virus [10] = assay: Antiviral activity against Hepatitis B virus infected in C57BL/6 mouse assessed as reduction in viral DNA at 0.93 mmol/kg, po administered bid and measured on day 2 by qRT-PCR analysis; assay type: functional
Hepatitis B virus [11] = assay: Antiviral activity against Hepatitis B virus infected in C57BL/6 mouse assessed as reduction in viral DNA at 0.93 mmol/kg, po administered bid and measured on day 4 by qRT-PCR analysis; assay type: functional
[12] = Toxicity in C57BL/6 mouse infected with Hepatitis B virus assessed as reduction in body weight at 0.93 mmol/kg, po administered bid and observed for 6 days; assay type: organism-based; conditions: in vivo, 144 h
Hepatitis B virus [13] = assay: Antiviral activity against Hepatitis B virus infected in C57BL/6 mouse assessed as reduction in viral DNA at 0.1 mg/kg, po measured upto 6 days by qRT-PCR analysis; assay type: functional
[14] = Solubility of compound assessed as 4-fluoro-3-[(4-hydroxy-1-piperidyl)sulfonyl]-N-(3,4,5-trifluorophenyl)benzamide level at pH 2; assay type: physicochemical; conditions: buffer
[15] = Half life in ICR mouse assessed as 4-fluoro-3-[(4-hydroxy-1-piperidyl)sulfonyl]-N-(3,4,5-trifluorophenyl)benzamide level at 50 mg/kg, po; assay type: ADME, organism-based; conditions: in vivo
[16] = Tmax in ICR mouse assessed as 4-fluoro-3-[(4-hydroxy-1-piperidyl)sulfonyl]-N-(3,4,5-trifluorophenyl)benzamide level at 50 mg/kg, po; assay type: ADME, organism-based; conditions: in vivo
[17] = Cmax in ICR mouse assessed as 4-fluoro-3-[(4-hydroxy-1-piperidyl)sulfonyl]-N-(3,4,5-trifluorophenyl)benzamide level at 50 mg/kg, po; assay type: ADME, organism-based; design: dose 50 mg/kg, route oral; conditions: in vivo
[18] = AUC (0 to t) in ICR mouse assessed as 4-fluoro-3-[(4-hydroxy-1-piperidyl)sulfonyl]-N-(3,4,5-trifluorophenyl)benzamide level at 50 mg/kg, po; assay type: ADME, organism-based; conditions: in vivo
[19] = MRT in ICR mouse assessed as 4-fluoro-3-[(4-hydroxy-1-piperidyl)sulfonyl]-N-(3,4,5-trifluorophenyl)benzamide level at 50 mg/kg, po; assay type: ADME, organism-based; conditions: in vivo
Hepatitis B virus [20] = assay: Antiviral activity against Hepatitis B virus infected in orally dosed C57BL/6 mouse assessed as reduction in viral DNA administered bid for daily and measured upto 6 days by qRT-PCR analysis; assay type: functional, organism-based
[21] = Toxicity in C57BL/6 mouse infected with Hepatitis B virus assessed as reduction in body weight at 0.23 and 0.93 mmol/kg, po administered bid and observed for 6 days; assay type: organism-based; conditions: in vivo, 144 h

IC50 (Hepatitis B virus [1]): 280 nM
SMILES: CC(C)C[C@H](N)C(=O)OC1CCN(S(=O)(=O)c2cc(C(=O)Nc3cc(F)c(F)c(F)c3)ccc2F)CC1
CC50 [2]: 5770 nM | selectivity ratio [3]: 20.6

IC50 (Hepatitis B virus [1]): 280 nM
SMILES: C[C@H](N)C(=O)OC1CCN(S(=O)(=O)c2cc(C(=O)Nc3cc(F)c(F)c(F)c3)ccc2F)CC1
CC50 [2]: 4810 nM | selectivity ratio [3]: 17.2

IC50 (Hepatitis B virus [1]): 560 nM
SMILES: CC(C)(C)[C@H](N)C(=O)OC1CCN(S(=O)(=O)c2cc(C(=O)Nc3cc(F)c(F)c(F)c3)ccc2F)CC1
CC50 [2]: > 10000 nM | selectivity ratio [3]: > 17.9

IC50 (Hepatitis B virus [1]): 260 nM | solubility [4]: 3 µg/mL (≈ 6.94 µM) | half-life [5]: 8.14 h | Tmax [6]: 1.08 h | Cmax [7]: 66100 ng/mL | AUC(0-t) [8]: 456 µg·h/mL | MRT [9]: 10.7 h
SMILES: O=C(Nc1cc(F)c(F)c(F)c1)c1ccc(F)c(S(=O)(=O)N2CCC(O)CC2)c1
CC50 [2]: 4810 nM | selectivity ratio [3]: 18.5 | Activity (Hepatitis B virus [10]): 0.53 log10IU/ml | Activity (Hepatitis B virus [11]): 0.6 log10IU/ml | Activity [12]: Non-Toxic

IC50 (Hepatitis B virus [1]): 1400 nM
SMILES: NCC(=O)OC1CCN(S(=O)(=O)c2cc(C(=O)Nc3cc(F)c(F)c(F)c3)ccc2F)CC1
CC50 [2]: > 10000 nM | selectivity ratio [3]: > 7.1

SMILES: C=C1[C@H](CO)[C@@H](O)C[C@@H]1n1cnc2c(=O)[nH]c(N)nc21.O [ENTECAVIR]
Activity (Hepatitis B virus [13]): 1.67 log10IU/ml

IC50 (Hepatitis B virus [1]): 380 nM
SMILES: CCC(C)[C@H](N)C(=O)OC1CCN(S(=O)(=O)c2cc(C(=O)Nc3cc(F)c(F)c(F)c3)ccc2F)CC1 (some centres undefined)
CC50 [2]: > 10000 nM | selectivity ratio [3]: > 26.3

IC50 (Hepatitis B virus [1]): 340 nM | half-life [5]: 1.23 h | Tmax [6]: 0.25 h | Cmax [7]: 11500 ng/mL | AUC(0-t) [8]: 6.65 µg·h/mL | MRT [9]: 0.97 h | solubility [14]: 700 µg/mL (≈ 1320 µM) | t1/2 [15]: 3.53 h | Tmax [16]: 0.5 h | Cmax [17]: 45170 ng/mL | AUCt [18]: 258.9 µg·h/mL | MRT [19]: 4.66 h
SMILES: CC(C)[C@H](N)C(=O)OC1CCN(S(=O)(=O)c2cc(C(=O)Nc3cc(F)c(F)c(F)c3)ccc2F)CC1
CC50 [2]: > 10000 nM | selectivity ratio [3]: > 29.4 | Activity (Hepatitis B virus [20]): Dose-dependent effect | Activity (Hepatitis B virus [10]): 0.75 log10IU/ml | Activity (Hepatitis B virus [11]): 0.67 log10IU/ml | Activity [21]: Non-Toxic

IC50 (Hepatitis B virus [1]): 350 nM
SMILES: N[C@@H](Cc1ccccc1)C(=O)OC1CCN(S(=O)(=O)c2cc(C(=O)Nc3cc(F)c(F)c(F)c3)ccc2F)CC1
CC50 [2]: > 10000 nM | selectivity ratio [3]: > 28.6
